Test results taken from patent US20240239759A1, “ISOXAZOLINE COMPOSITIONS AND THEIR USE AS ANTIPARASITICS” (Intervet Inc., priority 2007, published 2024).
Like-named read-outs stand apart in the source and are kept apart here.

Tests used:
[1] = system: cat fleas (C. felis); test: Efficacy against cat fleas on dogs (Example 5); assay type: in vivo, Ctenocephalides felis; conditions: beagles, Day 2 (approx. 48 hr after treatment)
Protocol: (§1) On Day Zero, one group of 4 beagles was treated orally with gelatin capsules containing 20 mg/kg body weight of […]. Another group of 4 beagles was treated topically by washing with 2 L of solution containing 200 ppm body weight of […] dissolved in DMF-premix/tap water (1:100, based on volume). Finally, a group of 3 beagles remained untreated as the negative control. Two days before treatment on Day Zero, all the beagles were each infested with approximately 80 unfed adult fleas (C. felis) and approximately 60 unfed adult ticks (R. sanguineus). The parasite burden of each beagle was assessed on Day 2 (approximately 48 hr after the treatment) by removing and counting the fleas and ticks. Fleas and ticks were classified according to vitality (fleas: dead or alive; ticks: dead or alive, and engorged or not engorged). The efficacy was calculated from the mean number of vital fleas and ticks in the treated group (Mt) relative to the mean number of vital fleas and ticks in the untreated control group (Mc) using following formula: […]

[2] = system: brown dog ticks (R. sanguineus); test: Further efficacy study against brown dog ticks on beagles (Example 6); assay type: in vivo, Rhipicephalus sanguineus
Protocol: (§2) Beagles were randomly assigned to 5 treatment groups of 4 animals each, and one untreated control group of 3 animals.
(§3) The dogs were infested with approximately 80 fleas (C. felis) and 60 ticks (R. sanguineus) on Days −2, 7, 14, 21, 28, 35, 42, and 49. Fleas and ticks were counted on Day 2 (approximately 48 h after treatment), as well as Days 9, 16, 23, 30, 37, 44, and 51 (approximately 48 hr after each post-treatment re-infestation) to evaluate the insecticidal and acaricidal activity in the treated groups. In Group B, an additional flea and tick infestation was conducted on Day 56, with a respective flea and tick count on Day 58. In addition to the flea and tick counts, blood samples were collected before the treatments, as well as approximately 2 hr, 4 hr, 8 hr, 24 hr, and 72 hr after the treatment on Day Zero, and then once on each of Days 7, 14, 21, 28, 35, 42, 49, and 56. The concentration of Compound 11-1 in blood plasma was analyzed by HPLC/MS/MS. The LOQ of this method was 5 ng/ml.

[3] = system: cat fleas (Ctenocephalides felis); test: Efficacy of various isoxazolines against cat fleas on mice (Example 3); assay type: in vivo; conditions: Ctenocephalides felis, po, mice, oral 20 mg/kg, infested 1 hr after treatment, read-out: Flea inhibition relative to negative control
Protocol: In this experiment, mice were randomly assigned to a treatment group or a negative control (untreated) group. Each group consisted of three mice. The mice in the treatment groups were orally administered 20 mg/kg bodyweight of various isoxazolines dissolved in 7% DMF-premix and 93% purified water (aqua ad injectabilia). The application volume of these treatments was 0.01 mL/g bodyweight. One hour after treatment, each mouse was sedated and generally infested (whole body) with 30 vital, adult fleas (C. felis). To achieve this, the sedated mice were placed into an infestation-jar, and the fleas were placed directly onto the fur. After approximately 30 minutes of feeding, fleas were recovered from the mice. Assessments for inhibition and mortality were conducted 1 hr, 24 hr, and 48 hr after each infestation. The efficacy was calculated as the percentage of inhibited fleas in the treatment groups relative to the negative control group.

[4] = system: cat fleas (C. felis); test: Further efficacy study against cat fleas on beagles (Example 6); assay type: in vivo, Ctenocephalides felis
Protocol: as §2, §3

[5] = system: brown dog ticks (R. sanguineus); test: Efficacy against brown dog ticks on dogs (Example 5); assay type: in vivo, Rhipicephalus sanguineus; conditions: beagles, Day 2 (approx. 48 hr after treatment)
Protocol: as §1

[6] = topical washing with 2 L of 200 ppm solution
[7] = Group A: 1 mg/kg oral tablet, Day 2
[8] = Group A: 1 mg/kg oral tablet, Day 9
[9] = Group A: 1 mg/kg oral tablet, Day 16
[10] = Group A: 1 mg/kg oral tablet, Day 23
[11] = Group A: 1 mg/kg oral tablet, Day 30
[12] = Group A: 1 mg/kg oral tablet, Day 37
[13] = Group A: 1 mg/kg oral tablet, Day 44
[14] = Group A: 1 mg/kg oral tablet, Day 51
[15] = Group B: 1 mg/kg subcutaneous injectable solution, Day 2
[16] = Group B: 1 mg/kg subcutaneous injectable solution, Day 9
[17] = Group B: 1 mg/kg subcutaneous injectable solution, Day 16
[18] = Group B: 1 mg/kg subcutaneous injectable solution, Day 23
[19] = Group B: 1 mg/kg subcutaneous injectable solution, Day 30
[20] = Group B: 1 mg/kg subcutaneous injectable solution, Day 37
[21] = Group B: 1 mg/kg subcutaneous injectable solution, Day 44
[22] = Group B: 1 mg/kg subcutaneous injectable solution, Day 51
[23] = Group B: 1 mg/kg subcutaneous injectable solution, Day 58
[24] = Group C: 1 mg/kg topical spot-on with absorption enhancer, Day 2
[25] = Group C: 1 mg/kg topical spot-on with absorption enhancer, Day 9
[26] = Group C: 1 mg/kg topical spot-on with absorption enhancer, Day 16
[27] = Group C: 1 mg/kg topical spot-on with absorption enhancer, Day 23
[28] = Group C: 1 mg/kg topical spot-on with absorption enhancer, Day 30
[29] = Group C: 1 mg/kg topical spot-on with absorption enhancer, Day 37
[30] = Group C: 1 mg/kg topical spot-on with absorption enhancer, Day 44
[31] = Group C: 1 mg/kg topical spot-on with absorption enhancer, Day 51
[32] = Group D: 1 mg/kg topical spot-on with absorption enhancer and spreading agent, Day 2
[33] = Group D: 1 mg/kg topical spot-on with absorption enhancer and spreading agent, Day 9
[34] = Group D: 1 mg/kg topical spot-on with absorption enhancer and spreading agent, Day 16
[35] = Group D: 1 mg/kg topical spot-on with absorption enhancer and spreading agent, Day 23
[36] = Group D: 1 mg/kg topical spot-on with absorption enhancer and spreading agent, Day 30
[37] = Group D: 1 mg/kg topical spot-on with absorption enhancer and spreading agent, Day 37
[38] = Group D: 1 mg/kg topical spot-on with absorption enhancer and spreading agent, Day 44
[39] = Group D: 1 mg/kg topical spot-on with absorption enhancer and spreading agent, Day 51
[40] = Group E: 1 mg/kg topical spot-on in ethyl lactate, Day 2
[41] = Group E: 1 mg/kg topical spot-on in ethyl lactate, Day 9
[42] = Group E: 1 mg/kg topical spot-on in ethyl lactate, Day 16
[43] = Group E: 1 mg/kg topical spot-on in ethyl lactate, Day 23
[44] = Group E: 1 mg/kg topical spot-on in ethyl lactate, Day 30
[45] = Group E: 1 mg/kg topical spot-on in ethyl lactate, Day 37
[46] = Group E: 1 mg/kg topical spot-on in ethyl lactate, Day 44
[47] = Group E: 1 mg/kg topical spot-on in ethyl lactate, Day 51

Cc1cc(C2=NOC(c3cc(Cl)cc(Cl)c3)(C(F)(F)F)C2)ccc1C(=O)NCC(=O)NCC(F)(F)F (racemic) [Compound 11-1, 4-[5-(3,5-dichlorophenyl)-5-trifluoromethyl-4,5-dihydroisoxazol-3-yl]-2-methyl-N-[(2,2,2-trifluoro-ethylcarbamoyl)-methyl]-benzamide]
Flea efficacy ([1]; oral gelatin capsules 20 mg/kg): 100%
Flea efficacy [1, 6]: 100%
Efficacy against brown dog ticks [2, 7]: 99.4
Efficacy against brown dog ticks [2, 8]: 99.3
Efficacy against brown dog ticks [2, 9]: 98.3
Efficacy against brown dog ticks [2, 10]: 98.2
Efficacy against brown dog ticks [2, 11]: 98.9
Efficacy against brown dog ticks [2, 12]: 94.6
Efficacy against brown dog ticks [2, 13]: 82.0
Efficacy against brown dog ticks [2, 14]: 82.0
Efficacy against brown dog ticks [2, 15]: 100
Efficacy against brown dog ticks [2, 16]: 99.3
Efficacy against brown dog ticks [2, 17]: 100
Efficacy against brown dog ticks [2, 18]: 98.8
Efficacy against brown dog ticks [2, 19]: 99.5
Efficacy against brown dog ticks [2, 20]: 98.8
Efficacy against brown dog ticks [2, 21]: 95.1
Efficacy against brown dog ticks [2, 22]: 88.8
Efficacy against brown dog ticks [2, 23]: 74.0
Efficacy against brown dog ticks [2, 24]: 81.9
Efficacy against brown dog ticks [2, 25]: 98.7
Efficacy against brown dog ticks [2, 26]: 94.8
Efficacy against brown dog ticks [2, 27]: 98.2
Efficacy against brown dog ticks [2, 28]: 96.2
Efficacy against brown dog ticks [2, 29]: 87.0
Efficacy against brown dog ticks [2, 30]: 76.5
Efficacy against brown dog ticks [2, 31]: 55.3
Efficacy against brown dog ticks [2, 32]: 83.1
Efficacy against brown dog ticks [2, 33]: 96.1
Efficacy against brown dog ticks [2, 34]: 98.3
Efficacy against brown dog ticks [2, 35]: 98.2
Efficacy against brown dog ticks [2, 36]: 96.2
Efficacy against brown dog ticks [2, 37]: 94.1
Efficacy against brown dog ticks [2, 38]: 73.8
Efficacy against brown dog ticks [2, 39]: 63.4
Efficacy against brown dog ticks [2, 40]: 70.6
Efficacy against brown dog ticks [2, 41]: 90.2
Efficacy against brown dog ticks [2, 42]: 95.9
Efficacy against brown dog ticks [2, 43]: 91.5
Efficacy against brown dog ticks [2, 44]: 97.8
Efficacy against brown dog ticks [2, 45]: 89.2
Efficacy against brown dog ticks [2, 46]: 79.8
Efficacy against brown dog ticks [2, 47]: 59.6
pest or weed control at 20 mg/kg ([3]; 1 h, 1 hr after infestation): 78.9%
pest or weed control at 20 mg/kg ([3]; 24 h, 24 hr after infestation): 96.7%
pest or weed control at 20 mg/kg ([3]; 48 h, 48 hr after infestation): 97.8%
Efficacy against cat fleas [4, 7]: 100
Efficacy against cat fleas [4, 8]: 100
Efficacy against cat fleas [4, 9]: 100
Efficacy against cat fleas [4, 10]: 100
Efficacy against cat fleas [4, 11]: 100
Efficacy against cat fleas [4, 12]: 99.6
Efficacy against cat fleas [4, 13]: 100
Efficacy against cat fleas [4, 14]: 100
Efficacy against cat fleas [4, 15]: 100
Efficacy against cat fleas [4, 16]: 100
Efficacy against cat fleas [4, 17]: 100
Efficacy against cat fleas [4, 18]: 100
Efficacy against cat fleas [4, 19]: 99.6
Efficacy against cat fleas [4, 20]: 100
Efficacy against cat fleas [4, 21]: 100
Efficacy against cat fleas [4, 22]: 100
Efficacy against cat fleas [4, 23]: 99.7
Efficacy against cat fleas [4, 24]: 100
Efficacy against cat fleas [4, 25]: 100
Efficacy against cat fleas [4, 26]: 100
Efficacy against cat fleas [4, 27]: 100
Efficacy against cat fleas [4, 28]: 100
Efficacy against cat fleas [4, 29]: 100
Efficacy against cat fleas [4, 30]: 100
Efficacy against cat fleas [4, 31]: 100
Efficacy against cat fleas [4, 32]: 100
Efficacy against cat fleas [4, 33]: 100
Efficacy against cat fleas [4, 34]: 100
Efficacy against cat fleas [4, 35]: 100
Efficacy against cat fleas [4, 36]: 100
Efficacy against cat fleas [4, 37]: 100
Efficacy against cat fleas [4, 38]: 100
Efficacy against cat fleas [4, 39]: 100
Efficacy against cat fleas [4, 40]: 100
Efficacy against cat fleas [4, 41]: 100
Efficacy against cat fleas [4, 42]: 100
Efficacy against cat fleas [4, 43]: 100
Efficacy against cat fleas [4, 44]: 100
Efficacy against cat fleas [4, 45]: 100
Efficacy against cat fleas [4, 46]: 100
Efficacy against cat fleas [4, 47]: 100
Tick efficacy ([5]; oral gelatin capsules 20 mg/kg): 100%
Tick efficacy [5, 6]: 100%
